The numbers were not newly measured in patent publication US5246920A, “Treatment of hyperprolactinemia” (University of South Florida, priority 1992, dated 1993), which cites them from elsewhere.

This series has as its system old rats. To be noted: peptides given individually.

Where no end group is shown, it is not given here. [ ]: non-standard residue; d: D form.

Turning to “GHRH: Natural growth hormone releasing hormone, also known as growth hormone releasing factor (GHRF or GRF) (YADAIFTNSYRKVLGQLSARKLLQDIMSRQQGESNQERGARARL; ends and bridges not checked; UniProt P01286 32-75, looked up)”, the “sensitivity of old rats to the individually administered peptides, in words” value is on record as “relatively insensitive”.
Turning to H[dW]AW[dF]K-NH2 [GHRP-6], the “sensitivity of old rats to the individually administered peptides, in words” value is “relatively insensitive”.
